According to patent US12168677B2, “Proteins for the treatment of epithelial barrier function disorders” (Genevive, Inc., priority 2017, dated 2024):
Entries after “also recorded” stand apart in the source; their conditions may differ.

Experiments:
[1] = tested on: HCT8 enterocytes and HT29-MTX goblet cells; assay: Epithelial cell wound healing (Oris Cell Migration assay); type: cell-based, human; settings: SG protein 1 μg/ml, EGF 30 ng/ml, staurosporine 100 nM; 48 hours
From the text: HCT8 enterocytes and HT29-MTX goblet cells were used in wound healing studies. The 96 well Oris Cell Migration assay containing plugs preventing cell attachment in the center of each well was used according to the manufacturer's instructions (Platypus Technologies, Madison, WI). The migration assay plates were warmed to room temperature prior to use and plugs were removed from 100% confluence wells prior to cell addition. The HCT8 enterocyte and HT29-MTX goblet cell lines were used at a 9:1 ratio with a total of 5×10^4 total cells added per well (4.5×10^4 HCT8 cells and 0.5×10^4 HT29-MTX cells). […] Plugs were then removed from all control and sample wells. Control wells included cells treated with the diluent vehicle as the blank, 30 ng/ml epidermal growth factor (EGF) as the positive control, and 100 nM staurosporine as the negative control, all diluted in cRPMI. Sample wells contained SG-15 protein at a concentration of 1 μg/ml diluted in cRPMI. 100% and 0% wells were cultured in cRPMI. […] Prior to staining for viable cells, plugs were removed from the 0% wells. Treatment media was removed and cells were washed in PBS containing 0.9 mM CaCl2) and 0.5 mM MgCl2. […] Samples were normalized between 100% and 0% samples and values expressed as a percent growth.

[2] = tested on: HCT8 enterocytes and HT29-MTX goblet cells; assay: Co-culture trans-epithelial electrical resistance (TEER) assay with heat killed E. coli challenge; type: cell-based, human; settings: staurosporine 100 nM, negative control
Description: Assays were performed as described below in trans-well plates where co-cultures of multiple cell types were performed utilizing a permeable membrane to separate cells. In the apical (top) chamber, human colonic epithelial cells, consisting of a mixture of enterocytes and goblet cells, were cultured until cells obtained tight junction formation and barrier function capacity as assessed by measurement of trans-epithelial electrical resistance (TEER). In the basolateral chamber, monocytes were cultured separately. Epithelial cells were primed with inflammatory cytokines. The assays measured the effect of a therapeutic protein, i.e., SG-15, on epithelial barrier function, wound healing, and production of cytokines. Cell culture. The HCT8 human enterocyte cell line (ATCC Cat. No. CCL-244) was maintained in RPMI-1640 medium supplemented with 10% fetal bovine serum, 100 IU/ml penicillin, 100 μg/ml streptomycin, 10 μg/ml gentamicin and 0.25 μg/ml amphotericin (cRPMI). […] Epithelial cells were trypsinized from culture flasks and viable cells determined by trypan blue counting. […] Trans-epithelial electrical resistance (TEER) readings were measured after the IFN-γ treatment and were used as the pre-treatment TEER values. […]

[3] = tested on: DSS treated mice; assay: DSS model: colon length; type: in vivo, C57BL/6 mice; settings: 50 nmoles/kg i.p. b.i.d.; 2.5% DSS 6 days
Description: Eight-week old C57BL/6 mice were housed 5 animals were cage and given food and water ad libitum for 7 days. Following the 7-day acclimation period, treatments were initiated concurrently with addition of 2.5% DSS to the drinking water. […] The mice were treated with 2.5% dextran sodium sulfate (DSS) in their drinking water for 6 days. Treatments were continued with SG-15 or […]-GLP2 twice a day (b.i.d.) in the morning and evening (every 8 and 16 hr) with i.p. injections at 50 nmoles/kg. Fresh 2.5% DSS drinking water was prepared every 2 days. Colon length was measured in mice included in the DSS model described in Example 1E. […] The graph in FIG. 8 represents data pooled from the 2 individual experiments (n=20).

[4] = tested on: DSS treated mice; assay: DSS model: colon weight to length ratio; type: in vivo, C57BL/6 mice; settings: Gly2-GLP2 i.p. b.i.d.; 2.5% DSS 6 days
Description: Eight-week old C57BL/6 mice were housed 5 animals were cage and given food and water ad libitum for 7 days. Following the 7-day acclimation period, treatments were initiated concurrently with addition of 2.5% DSS to the drinking water. […] The mice were treated with 2.5% dextran sodium sulfate (DSS) in their drinking water for 6 days. Treatments were continued with SG-15 or […]-GLP2 twice a day (b.i.d.) in the morning and evening (every 8 and 16 hr) with i.p. injections at 50 nmoles/kg. Fresh 2.5% DSS drinking water was prepared every 2 days. Colon length and weight were measured in mice included in the DSS model study described in Example 1E. […] Accordingly, the ratio of tissue weight to length can be used as a readout of DSS induced tissue damage. SG-15 administration to DSS treated mice (Example 1E) reduced the colon weight to length ratio elicited by DSS (DSS=3.9 mg/mm, DSS+SG-15=3.5 mg/mm; p=0.13). […] However, no difference was observed between treated with SG-15 as compared to treatment with […]GLP2. The graph in FIG. 9 represents data pooled from the 2 individual experiments (n=20).

[5] = set-up: species or system mice; settings: mouse, in vivo, ip

With `CN[C@@H]1C[C@H]2O[C@@](C)([C@@H]1OC)n1c3ccccc3c3c4c(c5c6ccccc6n2c5c31)C(=O)NC4` [staurosporine, reference compound] the “Wound healing, percent growth” value [1] was “suppressing cell proliferation” and the “Effect of control compound on TEER” value [2] was “drastic decrease in TEER”.

For “Gly2-GLP2: a stable analog of glucagon-like peptide 2 (GLP2), positive control in DSS model”, the “Colon length / colon shortening elicited by DSS treatment” value [3] was “significant improvement in colon length”, the “Colon length, Gly2-GLP2 compared with SG protein” value [3] was “significant improvement over SG-16; also recorded: significant improvement over SG-17; also recorded: significant improvement over SG-18” and the “Colon weight to length ratio, effect of positive control in DSS mice” value [4] was “significant reduction in colon weight to length ratio”.

For “epidermal growth factor (NSDSECPLSHDGYCLHDGVCMYIEALDKYACNCVVGYIGERCQYRDLKWWELR; Epidermal growth factor; UniProt P01133 971-1023, looked up) [EGF, positive control in wound healing assay, reference compound]”, the “Wound healing, percent growth” value [1] was “increasing proliferation”.

With “fluorescently labeled bovine serum albumin: tracer protein for tracking studies following intraperitoneal injection” the “Time at which protein reached the colon after i.p. delivery” value [5] was 6 h.
